Measurements from ChEMBL document CHEMBL1148573, “Design, synthesis, and binding affinities of potential positron emission tomography (PET) ligands for visualization of brain dopamine D3 receptors” (J Med Chem, 2006).

What was measured:
[1] = Distribution coefficient at pH 7.4; type: physicochemical; conditions: octanol/water
D(3) dopamine receptor = D(3) dopamine receptor (Homo sapiens, UniProt P35462); experiment: biochemical
Description: Displacement of [3H]spiroperidol from cloned human dopamine receptor D3 expressed in CHO cells

[2] = Apparent permeability assessed by Caco-2 layer assay; type: ADME, cell-based; conditions: human
[3] = Partition coefficient measured; type: physicochemical; conditions: octanol/water
D(2) dopamine receptor = D(2) dopamine receptor (Homo sapiens, UniProt P14416); experiment: biochemical
Chain of D(2) dopamine receptor (P14416 whole entry): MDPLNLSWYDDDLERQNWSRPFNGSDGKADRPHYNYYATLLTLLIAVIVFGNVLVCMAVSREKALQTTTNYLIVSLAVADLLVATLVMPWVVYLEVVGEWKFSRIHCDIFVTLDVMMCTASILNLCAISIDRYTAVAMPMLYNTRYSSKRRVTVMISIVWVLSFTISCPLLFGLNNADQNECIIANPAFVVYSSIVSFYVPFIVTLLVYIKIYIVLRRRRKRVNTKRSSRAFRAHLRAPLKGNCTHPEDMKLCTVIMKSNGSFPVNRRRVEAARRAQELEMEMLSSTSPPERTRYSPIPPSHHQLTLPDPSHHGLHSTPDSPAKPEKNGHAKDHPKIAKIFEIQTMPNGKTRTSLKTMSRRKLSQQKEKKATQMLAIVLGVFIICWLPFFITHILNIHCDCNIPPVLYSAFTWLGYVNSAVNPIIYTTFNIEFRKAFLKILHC
Description: Displacement of [3H]spiroperidol from cloned human dopamine receptor D2(long) expressed in rat C6 glioma cells

Chain of D(3) dopamine receptor (P35462 whole entry): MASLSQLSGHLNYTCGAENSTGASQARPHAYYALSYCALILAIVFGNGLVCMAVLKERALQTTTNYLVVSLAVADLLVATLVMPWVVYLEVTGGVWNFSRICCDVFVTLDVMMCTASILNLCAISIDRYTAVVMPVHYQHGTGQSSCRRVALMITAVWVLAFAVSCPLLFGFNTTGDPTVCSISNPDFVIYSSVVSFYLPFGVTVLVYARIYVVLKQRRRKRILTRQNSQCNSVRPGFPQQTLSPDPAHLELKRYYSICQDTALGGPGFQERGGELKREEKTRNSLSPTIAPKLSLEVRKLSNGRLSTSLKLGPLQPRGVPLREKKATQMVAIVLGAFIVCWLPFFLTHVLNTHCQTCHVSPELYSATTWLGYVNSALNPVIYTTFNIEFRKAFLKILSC

Row | Ki (D(3) dopamine receptor) [nM] | Ki (D(2) dopamine receptor) [nM] | Compound | logD [1] | Papp [2] [×10⁻⁶ cm/s] | logP [3]
1 | 118 | > 750 | COc1ccc2onc(N3CCN(CCCCNC(=O)c4ccc5c(c4)OCO5)CC3)c2c1 | – | – | –
2 | 25.5 | 369 | COc1ccccc1N1CCN(CCCCNC(=O)c2cc3cccc(OC)c3o2)CC1 | – | – | –
3 | > 2700 | > 750 | COc1ccc2onc(N3CCN(CCCCNC(=O)c4cc5ccccc5oc4=O)CC3)c2c1 | – | – | –
4 | 60.1 | 146 | COc1ccccc1N1CCN(CCCCNC(=O)c2cc3ccccc3oc2=O)CC1 | – | – | –
5 | 5540 | > 1000 | COc1ccc2onc(N3CCN(CCCCNC(=O)c4cccc(-n5ccnc5)c4)CC3)c2c1 | – | – | –
6 | 262 | 1250 | COc1cccc2cc(C(=O)NCCCCN3CCN(c4cccc5nccnc45)CC3)oc12 | – | – | –
7 | > 8500 | > 750 | COc1cccc2cc(C(=O)NCCCCN3CCN(c4nc5ccccc5[nH]4)CC3)oc12 | – | – | –
8 | 38 | > 750 | COc1ccc2onc(N3CCN(CCCCNC(=O)c4ccc(N5CCOCC5)cc4)CC3)c2c1 | 2.96 | 36.3 | 3.16
9 | 1140 | > 1000 | COc1ccc2onc(N3CCN(CCCCNC(=O)c4cccc(-c5ncccn5)c4)CC3)c2c1 | – | – | –
10 | 14.7 | 86.2 | COc1ccccc1N1CCN(CCCCNC(=O)c2ccc3c(c2)OCO3)CC1 | – | – | –

Continued, compound first:

Row | Compound | Ki (D(3) dopamine receptor) [nM] | Ki (D(2) dopamine receptor) [nM] | logD [1] | Papp [2] [×10⁻⁶ cm/s] | logP [3]
11 | COc1ccc2onc(N3CCN(CCCCNC(=O)c4cc(-c5ccco5)n[nH]4)CC3)c2c1 | 21.4 | > 750 | 2.43 | 7.39 | 2.98
12 | COc1ccccc1N1CCN(CCCCNC(=O)c2ccc3nccnc3c2)CC1 | 77.9 | 179 | – | – | –
13 | COc1ccccc1N1CCN(CCCCNC(=O)c2ccc(-n3ccnc3)cc2)CC1 | 4.79 | 27.2 | – | – | –
14 | COc1ccc2onc(N3CCN(CCCCNC(=O)c4cccc(N5CCOCC5)c4)CC3)c2c1 | 1440 | > 1000 | – | – | –
15 | COc1ccccc1N1CCN(CCCCNC(=O)c2cc(-c3ccco3)[nH]n2)CC1 | 19.3 | 130 | – | – | –
16 | COc1ccccc1N1CCN(CCCCNC(=O)c2ccc3nonc3c2)CC1 | 58.5 | > 1000 | – | – | –
17 | COc1ccc2onc(N3CCN(CCCCNC(=O)c4cc5cccc(OC)c5o4)CC3)c2c1 | 98 | > 750 | – | – | –
18 | COc1cccc2cc(C(=O)NCCCCN3CCN(c4[nH]nc5ccccc45)CC3)oc12 | 127 | 56.6 | – | – | –
19 | COc1ccc2oc(N3CCN(CCCCNC(=O)c4cc5cccc(OC)c5o4)CC3)nc2c1 | > 8500 | > 750 | – | – | –
20 | COc1ccc2onc(N3CCN(CCCCNC(=O)c4ccc5nccnc5c4)CC3)c2c1 | 220 | > 750 | – | – | –
21 | COc1ccccc1N1CCN(CCCCNC(=O)c2ccc(N3CCOCC3)cc2)CC1 | 23.9 | 141 | – | – | –
22 | COc1ccc2onc(N3CCN(CCCCNC(=O)c4ccc(-n5ccnc5)cc4)CC3)c2c1 | 22.6 | > 750 | 2.42 | 6.56 | 2.63
23 | COc1ccc2onc(N3CCN(CCCCNC(=O)c4cccc(-c5noc(C)n5)c4)CC3)c2c1 | 1280 | > 1000 | – | – | –
24 | COc1ccc2onc(N3CCN(CCCCNC(=O)c4ccc5nonc5c4)CC3)c2c1 | 85 | > 750 | – | – | –
25 | COc1ccc2ccnc(N3CCN(CCCCNC(=O)c4cc5cccc(OC)c5o4)CC3)c2c1 | 102 | – | – | – | –
